The record followed here is a melting point compilation (Tetko et al.).

The structures appear in SMILES notation.

By melting point is commonly meant the temperature of the solid-liquid transition.

For the data set the following is noted: a range is the spread between reports.
The molecule `N#CCc1ccc(O)cc1` gave a melting point of 69 to 71 °C.

In turn, `CCCCCCCCCCO` gave a melting point of 6 to 7 °C.

`N#Cc1ccc(C=O)cc1` displayed a melting point of 100 to 102 °C. The molecule `Nc1ccc([N+](=O)[O-])cc1` gave a melting point of 146 to 150 °C. The molecule `N#CCc1ccc([N+](=O)[O-])cc1` had a melting point of 116 to 117 °C. The same measure for `NCCCNCCCCNCCCN`: 28 to 29 °C; for `CCOC(=O)C(C)(C)C`: -90 to -89.5 °C; for `Cc1ccc(S(=O)(=O)Cl)cc1`: 68 to 71 °C. As for `NCCCCCO`, the melting point was 35 to 38.5 °C.

In the case of `CCC/C=C/C(=O)O`, the melting point lay in the range of 33 to 36.5 °C. In the case of `CC(=O)NS(=O)(=O)c1ccc(N)cc1`, the melting point fell in the range of 182 to 183 °C. The molecule `CC(C)(C)OC(=O)CCC(Cl)(Cl)Cl` gave a melting point of 20 °C. Turning to `O/N=C\c1ccccc1`, the melting point lay within 35 to 36.5 °C. In the case of `CCCSSCCC`, the melting point is -86 to -85.6 °C.

Take `BrC1c2ccccc2-c2ccccc21`: the melting point was 103 to 104 °C.

`C=C(CC)CC`: the melting point is -132 °C. With `S=c1nc[nH]c2nc[nH]c12`, the melting point fell in the range of 313 to 314 °C. Next, `N#CCc1ccc(Cl)cc1`: 30 to 31 °C; `Cc1ccnc(-c2cc(C)ccn2)c1`: 174 to 175 °C. As to `CCNc1ccccc1`, the melting point was -64 to -63 °C. `N#Cc1ccccc1C=O`: the melting point was 104 to 108 °C.

The molecule `COc1ccc([N+](=O)[O-])cc1N` registered a melting point of 117 to 118 °C.

The molecule `O=C(O)Cc1ccc(-c2ccccc2)cc1` showed a melting point of 160 to 161 °C. As for `O=C(C[N+](=O)[O-])Nc1ccccc1`, the melting point lay in the range of 93 to 94 °C. As for `CCOC(=O)c1ccc([N+](=O)[O-])cc1`, the melting point was 57 to 58 °C.

Consider `Oc1ccc(O)cc1`, for which the melting point is 170 to 175 °C. The same measure for `COc1cc(Cl)c(Cl)c(Cl)c1Cl`: 84 to 88 °C; for `ClCCl`: -97 to -95 °C; for `O=C(O)Cc1ccc(Br)cc1`: 116 to 117 °C. Next, `CCCCCCCCCCCCCCBr`: 5 to 5.6 °C; `CCC1(C2=CCCCC2)C(=O)NC(=O)NC1=O`: 172 to 173 °C; `CCc1cccnc1`: -77 to -76.9 °C.

Regarding `Cc1ccc(C(=O)O)c(O)c1`, the melting point was 177 to 178 °C.

Molecule `O=C(O)C(F)(F)C(F)(F)C(F)(F)C(F)(F)C(F)(F)C(F)(F)C(F)(F)F` gave a melting point of 54.3 to 55.5 °C. Next, `ClCc1ccccc1Cl`: -17 to -13 °C; `C=C(Br)CC`: -133 °C. The molecule `O=Cc1ccccc1F` came in with a melting point of -45 to -44.5 °C. Next, `CCCCP(CCCC)CCCC`: -65 to -60 °C; `CCCCCCCCCCCCCCCC(=O)OC(C)C`: 12 to 13.5 °C. Next, `c1ccc2cnccc2c1`: 26 to 26.5 °C; `BrCc1ccc(Br)cc1`: 62 to 63 °C.

The molecule `Cc1ccc(OCC(=O)O)cc1` came in with a melting point of 140 to 141 °C. The same measure for `CN(C)c1ccc(C=Nc2ccccc2)cc1`: 96 to 100 °C.

In the case of `Clc1cccc(Cl)n1`, the melting point fell in the range of 86 to 88 °C. `N#CSCSC#N`: the melting point fell in the range of 105 to 106 °C.

Turning to `CCCCCc1cc(O)c2c(c1)OC(C)(C)c1ccc(C)cc1-2`, the melting point fell in the range of 76.5 to 77 °C. With `Cc1cc(C)cc(O)c1`, the melting point lay in the range of 62.5 to 65.5 °C. Next, `COc1cc(OC)c(C(=O)O)cc1OC`: 144 to 145 °C; `Cc1ccc(C)c(C)c1`: -44 to -43.8 °C. The same measure for `O=C1OCc2c(Cl)c(Cl)c(Cl)c(Cl)c21`: 208 to 210 °C. Regarding `Oc1ccc(F)cc1`, the melting point lay within 44.5 to 48 °C. Next, `N#CCc1cccc(Br)c1`: 27 to 28 °C; `CN1CC=C(c2ccccc2)CC1`: 38.5 to 40 °C. `Brc1ccc(Br)c2ccccc12` came in with a melting point of 81 to 83 °C.

Take `Nc1ccc2cc3ccccc3cc2c1`: the melting point was 235 to 239 °C.

Molecule `C[Si]1(C)O[Si](C)(C)O[Si](C)(C)O[Si](C)(C)O1` displayed a melting point of 17.5 to 18 °C. The molecule `Ic1ccc(I)s1` displayed a melting point of 41 to 41.5 °C. `C=CC(C)(C)C` registered a melting point of -115 °C. As for `Cc1ccc(C(=O)c2ccccc2)cc1C`, the melting point is 46 to 47.5 °C. As to `c1ccc(SSc2ccccc2)cc1`, the melting point is 60 to 62 °C. As for `CC(C)(Br)C(=O)O`, the melting point lay within 44 to 48.5 °C. For the molecule `CC(C)(O)c1ccccc1`, the melting point lay within 32 to 36 °C. For `CC(C)C(Br)C(=O)O` (configuration not stated), the melting point lay within 39 to 44 °C.

Molecule `Cc1ccccc1Cl` yielded a melting point of -36 to -35 °C. With `CCCCCCCC1CCCCC1`, the melting point is -31 to -30 °C. Turning to `CC1CCC(C)(C)C1` (configuration not stated), the melting point is -142 °C. Next, `CNC(=O)NC(C)=O`: 178 to 180 °C. Molecule `CCOC(=O)CCl` displayed a melting point of -26 to -21 °C. `O=C(c1ccccc1)c1cccs1` came in with a melting point of 56 to 57 °C.

For the molecule `COc1ccc(OC)c(C)c1`, the melting point fell in the range of 15 to 20 °C. Next, `O=C(O)c1cccc(Cl)c1[N+](=O)[O-]`: 237 to 238 °C; `O=C(O)C(=O)c1ccccc1`: 65 to 66 °C; `Nc1cccc(Cl)c1`: -10.4 to -10 °C.

`O=C(O)C(Br)(Br)Br`: the melting point turned out to be 132 °C. For `CC1CC1(C)C` (configuration not stated), the melting point was -138 °C. The molecule `Oc1ccc(N=Nc2ccccc2)cc1` returned a melting point of 154 to 155 °C. With `CCCCCCCCCCCCCCC(C)O` (configuration not stated), the melting point is 44 to 47 °C. The same measure for `N#CCC(=O)c1ccccc1`: 80.5 to 83 °C; for `Cc1ccc([N+](=O)[O-])c(O)c1`: 53 to 55 °C; for `Cc1ncc([N+](=O)[O-])n1CCO`: 159 to 160 °C. Consider `COCc1ccccc1`, for which the melting point was -53 to -52 °C. Consider `O=C(O)CCc1c[nH]c2ccccc12`, for which the melting point came to 134 °C.

`Cc1cc(C)c(CC(=O)O)c(C)c1` yielded a melting point of 168 to 169 °C. Molecule `Nc1ccccc1C=O` came in with a melting point of 38 to 39 °C. For `COc1ccc(N)cc1`, the melting point lay within 57 to 59 °C.

`Nc1c(Cl)cc(Cl)cc1Cl`: the melting point lay within 74 to 78.5 °C. Turning to `CCCN(CC1CC1)c1c([N+](=O)[O-])cc(C(F)(F)F)cc1[N+](=O)[O-]`, the melting point lay in the range of 32 to 32.5 °C. `Cc1cccc(N)n1`: the melting point lay in the range of 41 to 43 °C. Turning to `c1c[nH]cn1`, the melting point lay in the range of 90 to 90.5 °C. Consider `CC(CO)(CO)C(=O)O`, for which the melting point was in the range of 189 to 190 °C. Next, `CNCCO`: -5 to -4.5 °C; `OCc1ccc(CO)cc1`: 118 to 119 °C; `Cc1cc([N+](=O)[O-])ccc1N`: 132 to 134 °C. `Oc1ccccc1` gave a melting point of 40.9 to 42 °C. Molecule `O=C1C=C(Cl)C(=O)C=C1Cl` returned a melting point of 160 to 162 °C. In turn, `O=[N+]([O-])c1ccc(Cl)cc1Cl` displayed a melting point of 30.5 to 34 °C. Molecule `CC(=O)Nc1ccccc1C(=O)O` yielded a melting point of 184 to 186 °C. Turning to `Nc1ccc([N+](=O)[O-])cc1N`, the melting point fell in the range of 199 to 201 °C. Next, `CCC(CC)C(C)C`: -115 °C; `Cc1cc(O)c2ccccc2n1`: 234 to 235 °C; `Fc1ccc(N=C=S)cc1`: 26 to 27 °C. In the case of `O=C(O)Cc1cccc(F)c1`, the melting point lay within 43 to 46 °C. In turn, `Nc1ccc(Br)cc1` registered a melting point of 63 to 66.4 °C. As to `N#Cc1ccc(O)cc1`, the melting point was found to be 112 °C. The molecule `OCCc1ccc(O)cc1` gave a melting point of 90 to 91 °C. `Cn1ccc(=O)n(C)c1=O`: the melting point was 120 to 121 °C.

`COc1cc(-c2ccc(N)c(OC)c2)ccc1N` yielded a melting point of 136 to 137 °C. The molecule `CCCCCCCCCCCCCl` had a melting point of -9.3 to -9 °C. Consider `ClCCCCCl`, for which the melting point is -38 to -37 °C.

In the case of `C/C=C\CC`, the melting point was -151 °C. On to `CC(CC(=O)O)CC(=O)O`, for which the melting point is 86 to 87 °C. In turn, `c1ccc(COc2ccc3[nH]ccc3c2)cc1` registered a melting point of 99 to 102 °C.

Regarding `ClCCOc1ccccc1`, the melting point lay within 24 to 28 °C. Molecule `CC(Br)C(C)(Br)Br` (configuration not stated) registered a melting point of 1.8 to 2 °C. With `O=C(O)C(F)(F)C(F)(F)C(F)(F)F`, the melting point was -18 to -17.5 °C. `COC(=O)c1ccc(C#N)cc1` yielded a melting point of 62 to 67 °C. `CC#CCCC` had a melting point of -90 to -89.6 °C. As to `O=[N+]([O-])c1ccc(Cl)c(Cl)c1`, the melting point lay within 39 to 43 °C. Molecule `CCCCCCCI` came in with a melting point of -48.2 to -48 °C. Regarding `c1ccc(-c2ccc3ccccc3n2)cc1`, the melting point was in the range of 83 to 86 °C. In the case of `CCCCCCCCCCCCCCCCCCBr`, the melting point is 28 to 28.2 °C. `Clc1cccc(Cl)c1Br` had a melting point of 61 to 66 °C. The molecule `N#CNC(=N)N` showed a melting point of 208 to 211 °C.

In the case of `O=C(O)c1cccc(C(F)(F)F)c1`, the melting point lay within 105 to 106 °C.

Molecule `CCCC(=O)NN` displayed a melting point of 44 to 45.5 °C. `COc1ccc(I)cc1` gave a melting point of 50 to 53 °C.

`O=C(O)c1cccc(C(=O)O)c1` showed a melting point of 342 to 347 °C. Next, `O=[N+]([O-])c1cccc(C(F)(F)F)c1`: -5 to -2.4 °C; `NC(=O)c1ccccc1Br`: 160 to 161 °C. The same measure for `COC(=O)c1ccc(OC)c(OC)c1`: 59 to 60.8 °C.

`C=CCCCC` showed a melting point of -140 °C. Next, `NCCCCCCCN`: 28 to 28.9 °C; `CCCCCCCCN`: -1 to 0 °C; `N#Cc1ccc(I)cc1`: 125 to 126 °C. Molecule `CCN=c1nc(Cl)[nH]c(=NC(C)C)[nH]1` registered a melting point of 172 to 177 °C.

The molecule `C=C(C)C(=O)OC` came in with a melting point of -48 to -47.5 °C. In the case of `O=C1NC(=O)c2c1cccc2[N+](=O)[O-]`, the melting point lay in the range of 214 to 219 °C.

Molecule `O=C(O)c1cc(Cl)ccc1Cl` displayed a melting point of 152 to 156 °C.

`C=CC=O`: the melting point is -87.7 to -87 °C. Turning to `O=C(O)CCCC(=O)c1ccccc1`, the melting point turned out to be 127 °C. The molecule `Cc1cccc(N)c1` came in with a melting point of -31.3 to -30 °C. Molecule `NC(=O)c1ccncc1` registered a melting point of 156 to 157 °C.
